This note sets out measurements from publication PMC10223552 (Pharmaceuticals, 2023).

As a reminder, the IC50 is the concentration at which inhibition is half-maximal. As usually defined, the Kb is the affinity of an antagonist, worked out from how it opposes an agonist.

Data set [1] deals with BJ normal skin fibroblast. Put plainly: MTT cytotoxicity test, BJ normal fibroblasts. It is filed as cell-based. The following applies: Homo sapiens, 48 h treatment. The protocol:
The studies were conducted on two breast cancer cell lines—MCF-7 (ER+PR+/HER2-negative) and MDA-MB-231 (ER/PR/HER2-negative) and human normal fibroblast cell line BJ. The cell lines were obtained from American Type Culture Collection (ATCC, Manassas, VA, USA) and were cultured at 37 °C in the presence of 5% CO2 in the atmosphere. The culture media (Eagle’s Minimum Essential Medium for MCF-7 and BJ, Leibovitz’s L-15 Medium for MDA-MB-231, Corning, NY, USA), was supplemented with 10% fetal bovine serum. The cell’s morphology was examined under a Nikon Eclipse Ti inverted phase contrast microscope (Nikon, Tokyo, Japan). The authenticity of tested cell lines was verified by short tandem repeat (STR) genotyping in the Department of Forensic Medicine (Medical University of Lublin, Lublin, Poland).
Cell viability based on metabolic activity was evaluated with the MTT colorimetric test based on the ability of viable cells to cause the transformation of tetrazolium salts MTT (3-[4,5-dimethylthiazol-2-yl]-2,5)diphenyltetrazolium bromide) into purple formazan, by cellular dehydrogenases. The cells were seeded into 96-well plates at a concentration of 2 × 10^5 cells/mL. Once 70–80% confluency was reached, tested compounds were added: ADS10310 and ADS1017 in concentrations ranging from 1 to 250 µM or DMSO as the vehicle in control cultures for the next 48 h (max. DMSO concentration <0.5%). Doxorubicin was used for comparison as the standard chemotherapeutic agent used in breast cancer treatment. After 48 h of incubation cell cultures were supplemented with 20 µL of 5 mg/mL MTT (Thermofisher, Waltham, MA, USA) stock in PBS (Corning, NY, USA), and the incubation was continued for 4 h at 37 °C. […] The solution absorbency was measured at 570 nm, using a PowerWave™ xs microplate spectrophotometer (BioTek Instruments, Winooski, VT, USA). […] IC50 values were determined using the AAT Bioquest IC50 calculator (AAT Bioquest, Inc. Quest Graph™ EC50 Calculator. https://www.aatbio.com/tools/ec50-calculator) (accessed on 6 September 2022).

The target of data set [2] is T1, gpH3R (Cavia porcellus, UniProt Q9JI35).
T1 construct: from tissue; host or cells: isolated distal ileum of male guinea pigs
T1 sequence (Q9JI35 whole entry): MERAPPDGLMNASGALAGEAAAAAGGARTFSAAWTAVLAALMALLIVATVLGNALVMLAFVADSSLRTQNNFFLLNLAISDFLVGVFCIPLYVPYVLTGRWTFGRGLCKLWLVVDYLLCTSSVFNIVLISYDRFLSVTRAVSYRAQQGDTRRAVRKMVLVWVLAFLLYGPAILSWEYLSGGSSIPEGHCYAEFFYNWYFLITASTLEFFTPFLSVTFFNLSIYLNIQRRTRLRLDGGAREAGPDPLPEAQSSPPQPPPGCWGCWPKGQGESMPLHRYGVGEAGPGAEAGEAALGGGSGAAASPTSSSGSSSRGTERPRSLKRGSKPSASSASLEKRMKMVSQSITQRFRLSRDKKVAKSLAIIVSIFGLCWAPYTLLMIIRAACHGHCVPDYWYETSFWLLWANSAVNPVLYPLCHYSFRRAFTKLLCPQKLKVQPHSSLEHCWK
Put plainly: Ex vivo assay for histamine H3R antagonists on electrically stimulated guinea pig ileum. Here is the method:
All newly synthesized compounds were evaluated as H3R antagonists/inverse agonists on the guinea pig ileum (gpH3R), stimulated electrically to induce contractions. The distinct affinity profile and species-dependent pharmacology of H3R ligands are known. […] Therefore, to compare species differences, all newly synthesized compounds were subjected to radioligand displacement assay in membrane fractions of HEK-293 cells stably expressing hH3R.
Ex vivo assay for histamine H3R and H1R antagonists were measured on the isolated guinea pig ileum stimulated to contractions by histamine. The pA2-values were calculated according to Arunlakshana and Schild. The radioligand-displacement binding assay was performed in membrane fractions of HEK-293 cells stably expressing hH3R. Cell cultivation and membrane preparation was performed according to Kottke et al.. The Ki values were calculated from the IC50 values using the Cheng–Prusoff equation [37]. The statistical calculations were performed on –log(Ki). […] The inhibitory activities of novel ADS compounds were assessed in spectrophotometric Ellman’s assay using AChE from electric eel (eeAChE) and BuChE from horse serum (eqBuChE).
3. Pharmacological assay results.
3.1. Ex vivo assay for histamine H3R receptor antagonists on guinea pig ileum.
Male guinea pigs, weighing 300-400 g were euthanized by a blow to the neck. Following this, a 20-30 cm length of the distal ileum, apart from the terminal 5 cm was rapidly removed and placed in phosphate buffer at room […]
indomethacin (Sigma-Aldrich, St. Louis, MO, USA) (1·10-6 mol/L). The intraluminal content was rinsed and the isolated intestine was cut into 1.5-2 cm segments. The preparations were mounted between two platinum electrodes […]
load of 1.0 g (Hugo Sachs Hebel-Messvorsatz (Tl-2)/HF-modem; Hugo Sachs Elektronik, Hugstetten, Germany) connected to a pen recorder (Kipp & Zonen BD41, Delft, Holland). During an equilibration period of 60 min, the Krebs buffer was changed every 10 min. The preparations were then continuously stimulated at 15-20 V at a frequency of 0.1 Hz for a duration of 0.5 ms, with rectangular-wave electrical pulses (Grass Stimulator S-88; Grass Instruments Co., Quincy, Massachusetts, USA). […] Five minutes […]
before (R)-(−)-α-methylhistamine (RAMH) (Toronto Research Chemicals Inc., North York, Canada), […]
added. The first cumulative concentration-response curve was determined to RAMH (10 nM – 10 mM) at an […]
The second to fourth curve was measured against increasing antagonist concentration (incubation time 20 min). The pA2-values were calculated according to Arunlakshana and Schild. [Br J Pharmacol Chemother. […] Statistical analysis was carried out with the Students’ t-test. In all tests, a p<0.05 was considered statistically significant. The pA2 values were compared with the affinity of thioperamide (Sigma-Aldrich, St. Louis, MO, USA).

The test system of data set [3] is MDA-MB-231 breast cancer cells. Put plainly: cells. The class given is cell-based. The following applies: Homo sapiens, MDA-MB-231, 48 h, read-out: MTT IC50 MDA-MB-231. The protocol: (§1) The cell lines were obtained from American Type Culture Collection (ATCC, Manassas, VA, USA) and were cultured at 37 °C in the presence of 5% CO2 in the atmosphere. […] The cell’s morphology was examined under a Nikon Eclipse Ti inverted phase contrast microscope (Nikon, Tokyo, Japan). The authenticity of tested cell lines was verified by short tandem repeat (STR) genotyping in the Department of Forensic Medicine (Medical University of Lublin, Lublin, Poland).
(§2) Cell viability based on metabolic activity was evaluated with the MTT colorimetric test based on the ability of viable cells to cause the transformation of tetrazolium salts MTT (3-[4,5-dimethylthiazol-2-yl]-2,5)diphenyltetrazolium bromide) into purple formazan, by cellular dehydrogenases. The cells were seeded into 96-well plates at a concentration of 2 × 10^5 cells/mL. […] Doxorubicin was used for comparison as the standard chemotherapeutic agent used in breast cancer treatment. After 48 h of incubation cell cultures were supplemented with 20 µL of 5 mg/mL MTT (Thermofisher, Waltham, MA, USA) stock in PBS (Corning, NY, USA), and the incubation was continued for 4 h at 37 °C. Next, the medium with MTT was removed, and obtained crystals were dissolved in 200 µL of DMSO (dimethyl sulfoxide, Avantor, Gliwice, Poland). The solution absorbency was measured at 570 nm, using a PowerWave™ xs microplate spectrophotometer (BioTek Instruments, Winooski, VT, USA). The experiment was performed three times with three replicates for each concentration of tested compounds.

Data set [4] deals with MCF-7 breast cancer cells. The data set can be described thus: cells. The class given is cell-based. The following applies: for IC50: Homo sapiens, MCF7, 48 h, read-out: MTT IC50 MCF-7. The protocol: as §1, §2

“And” between values parts separate entries of the source, which are not always exact repeats. Equal values may be shown once.

As for `Cl.Cl.N=C(NCCCCc1ccc(Cl)cc1)NCCCCN1CCCCC1` [ADS10310], the IC50 in data set [1] amounted to 231 µM; in data set [3] it was 115 µM; in data set [4] it was 82.9 µM. In data set [2], this compound gave a Kb of 0.0191 µM. Moreover, in data set [4] (MTT, 48 h, concentrations among 10-125 μM, column of each value cannot be told), the “Cell viability (%) ± SD, MCF-7” value was 79.57±1.33% and 60.51±1.86% and 57.12±1.54% and 44.21±3.24% and 39.79±2.76%.

In the case of `N=C(N)N(CCCCN1CCN(CCCCCCCOc2ccccc2)CC1)Cc1ccccc1` [ADS1017], the results for the IC50 in data set [1], in data set [3] and in data set [4] were 39 µM, 19.9 µM and 24.7 µM, respectively. Further, the “gpH3R pA2 ± sem” value in data set [2] (isolated guinea pig ileum, vs RAMH, 20 min) is 8.21 ± 0.15.
